Data set [1] relates to 786-O (renal cell carcinoma). The experiment in a line: Cell viability (Alamar Blue), 24-hour 2D viability, 786-O cells. The note with it: Homo sapiens, 786-0, 24 h, 786-0 cells. It counts as cell-based, human. The protocol:
(§1) A cell viability assay is performed to assess the potency of the compounds in human cancer cell lines 786-O (renal cell carcinoma), SJSA-1 (osteosarcoma), and/or A431 (epidermoid carcinoma). Additional cell lines, such as pancreatic cancer cell lines (e.g., Panc 02.13, BxPC-3, Panc 12, Panc 02.03, Panc 6.03, PSN-1, HPAC, and Capan-1), prostate cancer cell lines (e.g., PC-3, DU145, 22Rv1, NCI-H660, BPH1, LNCaP, BM-1604, and MDA PCa 2b), etc., can be tested in a similar method.
(§2) Cells (SJSA-1, 786-0 and/or A431) are seeded (5000 cells/100 μL/well) in 96-well tissue culture plate and incubated at 37° C./5% CO2 for 16-24 hours. The cells are then treated with compounds (25 μL of 5×). The compound concentrations are 10-0.0005 μM prepared in 3-fold serial dilutions with final DMSO concentration of 1%. The plates are then incubated for 24 h at 37° C./5% CO2 in a moist environment. Then Alamar Blue™ reagent (final concentration 1×-12.5 μL) is added to each well and incubated for 1.5 hours at 37° C./5% CO2. The plates are read on fluorescence reader at 540 nanometer (nm) excitation and 590 nm emission wavelengths. The IC50 values are subsequently determined using a sigmoidal dose-response curve (variable slope) in GraphPad Prism® 5 software.
On the technique in general: The colour change of resazurin is a common sign of viable cells or microbes.

For data set [2], the system named is A431 (epidermoid carcinoma). The experiment in a line: Cell viability (Alamar Blue), 24-hour 2D viability, A431 cells. The note with it: Homo sapiens, A-431, 10% FBS. It counts as cell-based, human. The protocol:
as §1, §2

A short description of data set [3]: Whole blood stability, mouse. It is filed as in vitro ADME. As to conditions: read-out: T1/2 (min) Mouse.
Data set [4] is described as follows: Whole blood stability, rat. The note with it: read-out: T1/2 (min) Rat. It is filed as in vitro ADME.
A short description of data set [5]: Whole blood stability, dog. The note with it: read-out: T1/2 (min) Dog. It is filed as in vitro ADME.

Molecules are shown by their SMILES. Read-outs that look alike come from different tables or passages of the source.

For `C#Cc1nc(C(=O)N2[C@@H](CCCC)Cc3cc(OC)ccc3[C@@H]2c2ccc(NC34CC5CC(CC(C5)C3)C4)cc2)cs1` [Compound 1a, ((1S,3S)-1-(4-(((3R,5R,7R)-adamantan-1-yl)amino)phenyl)-3-butyl-6-methoxy-3,4-dihydroisoquinolin-2(1H)-yl)(2-ethynylthiazol-4-yl)methanone], the EC50 (commonly the midpoint of the concentration-response curve) in data set [1] (10% FBS + 2 μM Fer-1, 24-hour 2D viability, read-out: EC50 (nM) 786-0 10% FBS + 2 μM Fer-1) was more than 10000 nM; in data set [1] (10% FBS, 24-hour 2D viability, read-out: EC50 (nM) 786-0 10% FBS), 43.7 nM; in data set [2], more than 10000 nM. Moreover, the half-life is 211 min in data set [3], more than 289 min in data set [4] and 249 min in data set [5].

These data come from patent US20260015346A1, “GLUTATHIONE PEROXIDASE 4 (GPX4) INHIBITORS FOR THE TREATMENT OF CANCER” (Ferro Therapeutics, Inc., priority 2022, published 2026).
